Results on four molecules are retold here after patent US4985434A, “7-substituted derivatives of 2-amino-3H,5H-pyrrolo(3,2-d)pyrimidin-4-ones and pharamceutical uses and compositions containing the same” (Biocryst, Inc., priority 1989, dated 1991).

SMILES strings stand for the structures. pIC50: −log10 of the molar value. Like-named read-outs stand apart in the source and are kept apart here.

Assay [1] addresses T1, purine nucleoside phosphorylase (PNP) (Bos taurus, UniProt P55859).
T1 construct: using calf spleen as the enzyme source; from tissue; host or cells: calf spleen
T1 sequence (P55859 1-289): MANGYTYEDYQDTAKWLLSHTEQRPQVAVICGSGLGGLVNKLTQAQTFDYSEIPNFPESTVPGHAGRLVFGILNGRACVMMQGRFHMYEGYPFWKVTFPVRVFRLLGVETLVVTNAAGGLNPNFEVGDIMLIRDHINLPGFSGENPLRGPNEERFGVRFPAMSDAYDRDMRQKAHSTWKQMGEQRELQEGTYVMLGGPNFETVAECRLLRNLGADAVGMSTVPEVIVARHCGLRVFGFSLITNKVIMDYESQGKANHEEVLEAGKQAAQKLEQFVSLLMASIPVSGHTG
Nature of the assay: PNP enzyme assay, radiochemical formation of [14C]-hypoxanthine from [14C]-inosine, calf spleen enzyme. The class given is biochemical. The conditions noted are these: for enzyme-inhibition activity: tested as in Example 8.

Another assay has as its system plasma inosine. Briefly: plasma inosine in Lewis Rats after intraperitoneal injection (HPLC). The conditions noted are these: 30 mg (IA), twice per day, 10% DMSO aqueous carrier, vs vehicle controls, other compounds per procedure of Example 16. The class given is in vivo. As for the experimental part:
A pharmaceutical composition for intraperitoneal injection is prepared for testing the compound (IA). An intraperitoneal injection solution containing the compound (IA) is dissolved in an aqueous carrier that contains ten percent DMSO.
The compound (IA) is intraperitoneally injected into Lewis Rats via the test composition of Example 15 to provide 30 mg of the compound (IA), with an injection given twice per day. Controls are used, which receive only the vehicle. At specific times after administration, the animals are sacrificed and plasma samples are prepared. The plasma is extracted with cold 0.5N HClO4 and neutralized with solid NH4 HCO3. After removal of perchlorate salts, the extract is subjected to HPLC on a reversed phase column (Spherisorb ODSI).
Compounds prepared as in Examples 10-14 are each made into a pharmaceutical formulation in accordance with the preparation of Example 15 and the resultant injectable solutions are tested in accordance with the procedure of Example 16.

As to `Nc1nc2c(C3CC=CCC3)c[nH]c2c(=O)[nH]1` (centres unmarked) [IC, 2-amino-7-(3-cyclohexenyl)-3H, 5H-pyrrolo[3,2-d]-pyrimidin-4-one], the enzyme-inhibition activity result in assay [1] (calf spleen PNP) is “significant enzyme-inhibition activity”. With `Nc1nc2c(C3=CCCCC3)c[nH]c2c(=O)[nH]1` [IA, 2-amino-7-(1-cyclohexenyl)-3H,5H-pyrrolo [3,2-d]pyrimidin-4-one], the “increase in plasma inosine” value in the assay with plasma inosine is “significant increase in plasma inosine”.

Turning to `Nc1nc2c(C3C=CCCC3)c[nH]c2c(=O)[nH]1` (centres unmarked) [IB, 2-amino-7-(2-cyclohexenyl)-3H, 5H-pyrrolo[3,2-d]pyrimidin-4-one], the enzyme-inhibition activity entry in assay [1] (calf spleen PNP) is “significant enzyme-inhibition activity”. In general, pIC50 refers to −log10 of the IC50, conventionally taken in molar units. For the molecule `Nc1nc2c(C3CCCCC3)c[nH]c2c(=O)[nH]1` [ID, 2-amino-7-(cyclohexyl)-3H,5H-pyrrolo[3,2-d]-pyrimidin-4-one], the pIC50 was 3.84 in assay [1] and 5.89 in assay [1] (1 mM phosphate, calf spleen PNP, read-out: IC50).
